Our source for the Ki values is ChEMBL document CHEMBL1154023, “Carbonic anhydrase inhibitors. Inhibition of the beta-class enzyme from the pathogenic yeast Candida glabrata with anions” (Bioorg Med Chem Lett, 2009).

In this assay the target is T1, Carbonic anhydrase (Candida glabrata CBS 138, UniProt Q6FTL6).
T1 sequence (Q6FTL6 whole entry): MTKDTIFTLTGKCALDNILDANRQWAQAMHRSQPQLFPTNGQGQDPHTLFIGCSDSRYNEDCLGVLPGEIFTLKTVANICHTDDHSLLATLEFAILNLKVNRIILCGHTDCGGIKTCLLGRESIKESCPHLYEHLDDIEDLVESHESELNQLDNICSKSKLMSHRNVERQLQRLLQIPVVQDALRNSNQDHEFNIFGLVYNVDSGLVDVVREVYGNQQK
The experiment in a line: Inhibition of Candida glabrata carbonic anhydrase by stopped flow CO2 hydration assay. Further details: species or system Nakaseomyces glabratus.

Usually Ki stands for a measure of affinity in units of concentration, obtained from inhibition or displacement. Higher therefore signals weaker binding. For the compound `NS(=O)(=O)O` [SODIUM SULFAMATE], the inhibition constant (Ki) turned out to be 110 µM.
For `OB(O)c1ccccc1` [PHENYLBORONIC ACID] the value was 100 µM; for `NS(N)(=O)=O` [SULFAMIDE], 420 µM.
